The source of these data is patent US20250009856A1, “METHODS FOR TREATING RESPIRATORY DISEASES” (MUCPharm Pty Ltd, priority 2021, published 2025).

The subject of one data set is SPF rabbits. The experiment in a line: Tolerability study of inhaled BromAc in rabbit model. As to conditions: Ac 20 mg inhaled; 48 h.
Data set [1] is described as follows: Particle size distribution of aerosols by laser diffraction, Pari LC Sprint nebulizer. It counts as physicochemical. As to conditions: mean. Here is the method: The particle size distributions (PSD) of 5 formulations containing bromelain and acetylcysteine at different concentrations were determined. The formulations were aerosolized using a PARI TurboBOY SX compressor, combined with the Pari LC Sprint nebulizer (PARI GmbH, USA). The nebulizer was connected to a USP induction port (throat), and particle size was measured at flow rate of 15 L/min in Spraytec particle sizer (Malvern Instruments, Malvern, UK). Measurements were performed in triplicate. Results are expressed as D10, D50 and D90, indicating the particle diameter at 10, 50 and 90% in the cumulative distribution.
The formulations were prepared in saline (0.9% w/v) and kept at −20° C. prior to analysis. The formulations tested were: • 1. Control: Saline (sodium chloride 0.9% w/v) • 2. Low Concentration of Ac (8 mg/mL) • 3. High Concentration of Ac (60 mg/mL) • 4. Brom at 50 μg/mL • 5. Combination 1: Low Ac (8 mg/mL)+Brom (50 μg/mL) • 6. Combination 2: High Ac (60 mg/mL)+Brom (50 μg/mL)

For data set [2], the system named is chemokines, cytokines and growth factors in tracheal aspirate samples from COVID-19 patients. Briefly: Immunological inflammatory mediators, 27-plex bead assay. Also noted: species or system human. As to conditions: BromAc 125 and 250 mcg + 2% NAC, or NAC alone at 2%; 60 minutes, 37° C. On the procedure: In order to verify the effect of BromAc in the inflammatory mediators present in tracheal aspirate (TA) samples from COVID-19 patients. TA specimens were treated with 125 to 250 μg of Bromelain and 2% NAC (BromAc) using the MAD device as described previously. Treated and untreated TA specimens were incubated at 37° C. in 6 well plates for 1 hour. After that, TA specimen aliquots were initially cleared by centrifugation at 800×g for 10 min, at room temperature and TA supernatants were transferred to fresh 2 mL microtubes. Samples were diluted 1:10 and incubated with magnetic beads covered with monoclonal antibodies specific to several immunological mediators, such as: chemokines (CXCL8, CCL11, CCL3, CCL4, CCL2, and CXCL10), inflammatory cytokines (IL-1b, IL-6, TNF-α, IL-12, IFN-g, IL-15 and IL-17), regulatory cytokines (IL-1Ra, IL-9. IL-10) and growth factors (FGF-basic, PDGF, VEGF, G-CSF. GM-CSF, IL-2 and IL-7). Experiments were carried out according to the manufacturer's instructions using the Procarta Human Cytokine 27-plex Assay, (Invitrogen, CA, USA). The immunological mediators were measured in TA samples and the concentrations of each sample was determined according to standard curves run for each molecule tested using a fifth parameter logistic fit analysis. The results were expressed as pg/mL for all mediators tested. […]

Data set [3] can be described thus: Pipette flow speed after aerosol treatment. To be noted: AS; for Pipette flow speed (€), After: before 0.005 ± 0.001. On the procedure: Artificial sputum was prepared following protocol as detailed by […] et al (Kirchner, S., et al., Use of artificial sputum medium to test antibiotic efficacy against Pseudomonas aeruginosa in conditions more relevant to the cystic fibrosis lung. Journal of visualized experiments: JOVE, 2012 (64)). Briefly 250 mg of porcine mucin, 200 mg of sperm DNA, 295 mg of diethylene triamine pentaacetic acid (DPTA), 25 mg sodium chloride, 110 mg potassium chloride, 140 mg Tris base were mixed in a volume of 45 ml of distilled water and pH adjusted to 7.0 using Trisbase. The volume of the solution was then adjusted to 50 ml. Further dilutions were then carried out to adjust viscosity as desired. Using a 0.5 ml glass pipette fixed at an angle of 60°, 0.5 ml of sample at 25° C. (ambient room temperature) was sucked up the pipette and the time taken to empty 0.3 ml of the sample was timed in sec. Pipette flow time (€) was calculated as follows: € (ml/sec)=0.3 ml/Time to empty 0.3 ml (sec) Artificial sputa (AS) were prepared as detailed above, and 1.5 ml of artificial sputum was carefully emptied into an endotracheal tube (in triplicates). A volume of 6.0 ml of NAC 10 mg/ml in PBS (pH.7.0) in triplicate was aerosolised using a nebulizer and passed over the sputum samples in the endotracheal tubes kept at 37° C. in a water bath. Similarly, the experiments were repeated using NAC 20 mg/ml in PBS (pH.7.0). The controls only received PBS (pH 7.0). The aerosol delivery time to empty 6.0 ml for each treatment was 25 min. The dynamic viscosity of the sputa was measured before and after using the capillary tube method, whilst the pipette flow time was also measured as described earlier using a 0.5 ml glass pipette. Samples were equilibrated to 25° C. before measurement A similar treatment as in the experiment described above for NAC was carried out using Bromelain (125 and 250 μg/ml) in PBS (pH.7.0) along with control using PBS (pH.7.0). Both dynamic viscosity and pipette flow time was measured as outlined earlier for both artificial and PMP simulated sputa models. Using a combination of NAC (20 mg/ml) with either 125 or 250 μg/ml Bromelain in PBS (pH.7.0), a similar investigation was carried out as outlined earlier and measurements were made for both artificial and simulated sputa models. D=(TREATED)-(UNTREATED/(UNTREATED)×100.

Values joined by “and” are separate entries in the source; they are usually repeats but may differ in a detail not shown here. Equal entries are not always repeated.

As for `CC(=O)N[C@@H](CS)C(=O)O` [NAC, N-acetylcysteine], in the data set on SPF rabbits, the “Incident: Broncho-interstitial pneumonia, multifocal, mild” value is reported as 1 out of 4 and the “Incident: Broncho-interstitial pneumonia, multifocal, mild, granulomatous” value is 3 out of 4. Besides, in data set [1] (NAC 8 mg/mL in saline), the D10 was 1.19 µm, the D50 was determined as 3.26 μm and the D90 was 8.23c. In addition, in data set [1] (NAC 60 mg/mL in saline), the D10 turned out to be 1.12 µm, the D50 turned out to be 2.87b μm and the D90 stood at 7.47 µm. The “IL-9 level, compared to untreated” value in data set [2] is given as “the same effect was observed”. In addition, in data set [3] (aerosol NAC 10 mg/ml), the “D (%), increase of pipette flow speed (€)” value is 28% and 28 ↑ %; the “Pipette flow speed (€), After” value amounted to 0.0064 ± 0.003 mL/s. Moreover, in data set [3] (aerosol NAC 20 mg/ml), the “D (%), increase of pipette flow speed (€)” value is 40% and 40 ↑ %; the “Pipette flow speed (€), After” value is 0.007 ± 0.001 mL/s.
